Test results reported in paper PMC8042122 (Scientific Reports, 2021).

Tested on: F. graminearum CBS185.32 strain
Format: cell-based, Fusarium graminearum
Settings: for Impact of methyl caps on the activity of TC3 (ability to inhibit TCTB production): 50 µM

Row | Substance | Impact of methyl caps on the activity of TC3 (ability to inhibit TCTB production) | Inhibitory activity on TCTB production
1 | CGNFLKRTC(CH3)ICVKK (disulfide) [TC3-CH3-2Ox, TC3-CH3-2 oxidized, cyclized through the non-capped Cys] | most negative impact | 
2 | CGNFLKRTCIC(CH3)VKK (disulfide) [TC3-CH3-3Ox, TC3-CH3-3 oxidized, cyclized through the non-capped Cys] | most negative impact | 
3 | CGNFLTRTCICVKK [TC3-K6T, TC3 with Lys6 substituted by Thr] |  | lowest inhibitory activity
